From patent US10968172B2, “USP30 inhibitors” (Mitobridge, Inc., priority 2017, dated 2021)

Target: USP30 (Homo sapiens (Human), UniProt Q70CQ3)
Assay: In vitro biochemical assay for USP30 enzyme (Ubiquitin-Rhodamine110 cleavage, fluorescence)
Settings: 20 nM USP30, 15 min pre-incubation, 100 nM Ub rhodamine substrate, 2 hrs at room temperature
Experimental: In vitro biochemical assay for USP30 enzyme
The in vitro assay for USP30 evaluates the ability of a test compound to inhibit the activity of the enzyme to cleave ubiquitin from a substrate. Ubiquitin-rhodamine 110 is a quenched, fluorescent substrate for USP30. Cleavage of the amide bond between the C-terminal glycine of ubiquitin and rhodamine results in an increase in rhodamine fluorescence at 535 nm (Exc. 485 nm).
Incubation of the substrate in the presence or absence of USP30 was compared to confirm the deubiquitylating activity of USP30. The USP30 enzyme assay was performed by pre-incubating 20 nM of USP30 with varying concentration of a test compound in the assay buffer [PBS (pH 7.4), 1 mM DTT, 0.01% Tween 20, 0.01% BSA, DMSO final concentration is 1%] for 15 mins at room temperature, following which 100 nM of substrate Ub rhodamine was added and incubated at room temperature for 2 hrs and the plate was read for fluorescence intensity at Ex. 485 nm/535 nm in VICTOR X5 plate reader. The percent inhibition of activity of the enzyme is calculated by comparing counts in the presence and absence of compounds.
Test compounds were screened at various concentrations (10-12 tested concentrations) and dose response curves were generated was generated using GraphPad Prism software Version 7 (San Diego, Calif., USA) with non-linear regression curve fit for sigmoidal dose response (variable slope).

Sequence of USP30 (Q70CQ3 whole entry): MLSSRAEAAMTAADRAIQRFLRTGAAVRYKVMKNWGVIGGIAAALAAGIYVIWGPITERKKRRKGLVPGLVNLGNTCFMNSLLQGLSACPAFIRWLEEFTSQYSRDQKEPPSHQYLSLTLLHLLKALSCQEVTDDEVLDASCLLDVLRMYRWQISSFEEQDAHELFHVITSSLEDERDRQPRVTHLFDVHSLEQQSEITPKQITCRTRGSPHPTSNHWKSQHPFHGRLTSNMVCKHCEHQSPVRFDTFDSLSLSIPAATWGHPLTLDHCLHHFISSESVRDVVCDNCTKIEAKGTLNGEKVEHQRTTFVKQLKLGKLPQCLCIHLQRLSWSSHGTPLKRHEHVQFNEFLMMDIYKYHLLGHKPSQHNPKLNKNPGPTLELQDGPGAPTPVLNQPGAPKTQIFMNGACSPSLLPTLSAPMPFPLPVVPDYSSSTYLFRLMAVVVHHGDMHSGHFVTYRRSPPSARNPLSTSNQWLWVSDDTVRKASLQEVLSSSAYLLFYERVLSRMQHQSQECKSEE

Compound `COc1ccc(C[C@H](NC(=O)c2cncs2)C(=O)Nc2ccc(S(=O)(=O)NC(C)(C)C)cc2)cc1` [Compound 19w, (S)-N-(1-((4-(N-(tert-butyl)sulfamoyl)phenyl)amino)-3-(4-methoxyphenyl)-1-oxopropan-2-yl)thiazole-5-carboxamide] has an IC50 of over 10000 nM.

With `COc1ccc(C[C@H](NC(=O)c2cocn2)C(=O)Nc2ccc(S(=O)(=O)NC(C)(C)C)cc2)cc1` [Compound 19z, (S)-N-(1-((4-(N-(tert-butyl)sulfamoyl)phenyl)amino)-3-(4-methoxyphenyl)-1-oxopropan-2-yl)oxazole-4-carboxamide] the IC50 was over 10000 nM.

In the case of `CC(C)(C)NS(=O)(=O)c1ccc(NC(=O)[C@H](Cc2ccc(OC(F)(F)F)cc2)NC(=O)c2ccc(F)cc2)cc1` [Compound 19ae, (S)-N-(1-((4-(N-(tert-butyl)sulfamoyl)phenyl)amino)-1-oxo-3-(4-(trifluoromethoxy)phenyl)propan-2-yl)-4-fluorobenzamide], the IC50 is reported as 3600 nM.

Compound `CC(C)(C)NS(=O)(=O)c1ccc(NC(=O)[C@H](Cc2ccccc2)NC(=O)C2CCCCC2)cc1F` [Compound 19m, (S)-N-(1-((4-(N-(tert-butyl)sulfamoyl)-3-fluorophenyl)amino)-1-oxo-3-phenylpropan-2-yl)cyclohexanecarboxamide] has an IC50 of 275 nM.

`CC(C)(C)NS(=O)(=O)c1ccc(NC(=O)[C@H](Cc2ccccc2)NC(=O)C2CCCC2)cc1` [Compound 10c, (S)-N-(1-((4-(N-(tert-butyl)sulfamoyl)phenyl)amino)-1-oxo-3-phenylpropan-2-yl)cyclopentanecarboxamide] gave an IC50 of 71 nM.

`CC(C)(C)NS(=O)(=O)c1ccc(NC(=O)[C@H](Cc2cccs2)NC(=O)c2ccccn2)cc1` [Compound 19s, (S)-N-(1-((4-(N-(tert-butyl)sulfamoyl)phenyl)amino)-1-oxo-3-(thiophen-2-yl)propan-2-yl)picolinamide] was tested, and the IC50 was 200 nM.

Work on `CC(C)(C)NS(=O)(=O)c1ccc(NC(=O)[C@H](CC2CCCCC2)NC(=O)c2ccc(F)c(F)c2)cc1` [Compound 14h, (S)-N-(1-((4-(N-(tert-butyl)sulfamoyl)phenyl)amino)-3-cyclohexyl-1-oxopropan-2-yl)-3,4-difluorobenzamide] yielded an IC50 of 31 nM.

For `CC(C)(C)NS(=O)(=O)c1cccc2c(NC(=O)[C@H](CC3CCCCC3)NC(=O)C3CCCCC3)cccc12` [Compound 19p, (S)-N-(1-((5-(N-(tert-butyl)sulfamoyl)naphthalen-1-yl)amino)-3-cyclohexyl-1-oxopropan-2-yl)cyclohexanecarboxamide], the IC50 was 195 nM.

With `CC(C)(C)NS(=O)(=O)c1cccc2c(NC(=O)[C@H](Cc3ccccc3)NC(=O)c3cccs3)cccc12` [Compound 4h, (S)-N-(1-((5-(N-(tert-butyl)sulfamoyl)naphthalen-1-yl)amino)-1-oxo-3-phenylpropan-2-yl)thiophene-2-carboxamide] the IC50 was 1800 nM.

For `CC(C)(C)NS(=O)(=O)c1cccc2c(NC(=O)[C@H](Cc3ccccc3)NC(=O)C3CCOCC3)cccc12` [Compound 4k, (S)-N-(1-((5-(N-(tert-butyl)sulfamoyl)naphthalen-1-yl)amino)-1-oxo-3-phenylpropan-2-yl)tetrahydro-2H-pyran-4-carboxamide], the IC50 was over 10000 nM.

`CC(C)(C)NS(=O)(=O)c1cccc2c(NC(=O)[C@H](Cc3ccccc3)NC(=O)C3CCCO3)cccc12` (stereo partly drawn) [Compound 4u, N-((S)-1-((5-(N-(tert-butyl)sulfamoyl)naphthalen-1-yl)amino)-1-oxo-3-phenylpropan-2-yl)tetrahydrofuran-2-carboxamide] was tested, and the IC50 was over 10000 nM.

In the case of `CC(C)(C)NS(=O)(=O)c1ccc(NC(=O)[C@H](Cc2ccccc2)NC(=O)c2ccccc2)cc1` [Compound 10a, (S)-N-(1-((4-(N-(tert-butyl)sulfamoyl)phenyl)amino)-1-oxo-3-phenylpropan-2-yl)benzamide], the IC50 is reported as over 10000 nM.

With `Cc1ccc(C[C@H](NC(=O)c2ccccc2)C(=O)Nc2cccc3c(S(=O)(=O)NC(C)(C)C)cccc23)cc1` [Compound 7m, (S)-N-(1-((5-(N-(tert-butyl)sulfamoyl)naphthalen-1-yl)amino)-1-oxo-3-(p-tolyl)propan-2-yl)benzamide] the IC50 was over 10000 nM.
